Test results reported in ChEMBL document CHEMBL3885881, “DrugMatrix”.

Species on record: Rattus norvegicus
Test: DrugMatrix - Regimen: Daily Repeat
Type: toxicity, organism-based, Sprague-Dawley
Design: regimen Daily Repeat, gender Male, age 6-8 weeks
Conditions: in vivo, po, 0.3 mg/kg, route oral GAVAGE, dose level Low, vehicle .5 % CMC; for ABSOLUTE BASOPHIL / ABSOLUTE EOSINOPHIL / ABSOLUTE LYMPHOCYTE / ABSOLUTE MONOCYTE / ABSOLUTE SEGMENTED NEUTROPHIL / BASOPHIL / EOSINOPHIL / ERYTHROCYTE COUNT / HEMATOCRIT / HEMOGLOBIN / LEUKOCYTE COUNT / LYMPHOCYTE / MEAN CORPUSCULAR HEMOGLOBIN / MEAN CORPUSCULAR HEMOGLOBIN CONCENTRATION / MEAN CORPUSCULAR VOLUME / MONOCYTE / NEUTROPHIL / NUCLEATED RED BLOOD CELLS / PLATELET COUNT: tissue Blood; for ALANINE AMINOTRANSFERASE / ALBUMIN / ALKALINE PHOSPHATASE / ASPARTATE AMINOTRANSFERASE / BLOOD UREA NITROGEN / CARBON DIOXIDE / CHLORIDE / CHOLESTEROL / CREATINE PHOSPHOKINASE / CREATININE / GLUCOSE / LACTATE DEHYDROGENASE / LIPASE / PHOSPHORUS / POTASSIUM / SODIUM / TOTAL BILIRUBIN / TOTAL PROTEIN / URIC ACID: tissue Plasma

**Q.** What does the source list for CN1[C@@H]2CC[C@H]1C[C@@H](OC(=O)c1c[nH]c3ccccc13)C2 [TROPISETRON]?
**A.** ABSOLUTE BASOPHIL (72 h, time 3 day): 0 CELLS/uL; ABSOLUTE EOSINOPHIL (72 h, time 3 day): 256.33 CELLS/uL; ABSOLUTE LYMPHOCYTE (72 h, time 3 day): 11976 CELLS/uL; ABSOLUTE MONOCYTE (72 h, time 3 day): 96 CELLS/uL; ABSOLUTE SEGMENTED NEUTROPHIL (72 h, time 3 day): 905 CELLS/uL; BASOPHIL (72 h, time 3 day): 0%; EOSINOPHIL (72 h, time 3 day): 2%; ERYTHROCYTE COUNT (72 h, time 3 day): 5.89 x10E6/uL; HEMATOCRIT (72 h, time 3 day): 37.4%; HEMOGLOBIN (72 h, time 3 day): 14.07 G/DL; LEUKOCYTE COUNT (72 h, time 3 day): 13.23 x10E3/uL; LYMPHOCYTE (72 h, time 3 day): 90.67%; MEAN CORPUSCULAR HEMOGLOBIN (72 h, time 3 day): 23.87 pg; MEAN CORPUSCULAR HEMOGLOBIN CONCENTRATION (72 h, time 3 day): 37.63 G/DL; MEAN CORPUSCULAR VOLUME (72 h, time 3 day): 63.5 fL; MONOCYTE (72 h, time 3 day): 0.67%; NEUTROPHIL (72 h, time 3 day): 6.67%; NUCLEATED RED BLOOD CELLS (72 h, time 3 day): 0 /100WBC; PLATELET COUNT (72 h, time 3 day): 1325.33 x10E3/uL; ALANINE AMINOTRANSFERASE (72 h, time 3 day): 46.33 u/L; ALBUMIN (72 h, time 3 day): 4.43 G/DL; ALKALINE PHOSPHATASE (72 h, time 3 day): 408.67 u/L; ASPARTATE AMINOTRANSFERASE (72 h, time 3 day): 87.33 u/L; BLOOD UREA NITROGEN (72 h, time 3 day): 13 mg/dL; CARBON DIOXIDE (72 h, time 3 day): 26 mmol/L; CHLORIDE (72 h, time 3 day): 106 MEQ/L; CHOLESTEROL (72 h, time 3 day): 71.33 mg/dL; CREATINE PHOSPHOKINASE (72 h, time 3 day): 621.67 u/L; CREATININE (72 h, time 3 day): 0.21 mg/dL; GLUCOSE (72 h, time 3 day): 160.67 mg/dL; LACTATE DEHYDROGENASE (72 h, time 3 day): 123.67 u/L; LIPASE (72 h, time 3 day): 9 u/L; PHOSPHORUS (72 h, time 3 day): 14.4 mg/dL; POTASSIUM (72 h, time 3 day): 6.64 MEQ/L; SODIUM (72 h, time 3 day): 147.37 MEQ/L; TOTAL BILIRUBIN (72 h, time 3 day): 0.2 mg/dL; TOTAL PROTEIN (72 h, time 3 day): 6.17 G/DL; URIC ACID (72 h, time 3 day): 2.47 mg/dL; ABSOLUTE BASOPHIL (120 h, time 5 day): 0 CELLS/uL; ABSOLUTE EOSINOPHIL (120 h, time 5 day): 244.67 CELLS/uL; ABSOLUTE LYMPHOCYTE (120 h, time 5 day): 13752.67 CELLS/uL; ABSOLUTE MONOCYTE (120 h, time 5 day): 213.33 CELLS/uL; ABSOLUTE SEGMENTED NEUTROPHIL (120 h, time 5 day): 1056 CELLS/uL; BASOPHIL (120 h, time 5 day): 0%; EOSINOPHIL (120 h, time 5 day): 1.67%; ERYTHROCYTE COUNT (120 h, time 5 day): 5.41 x10E6/uL; HEMATOCRIT (120 h, time 5 day): 34.5%; HEMOGLOBIN (120 h, time 5 day): 13.27 G/DL; LEUKOCYTE COUNT (120 h, time 5 day): 15.27 x10E3/uL; LYMPHOCYTE (120 h, time 5 day): 90.33%; MEAN CORPUSCULAR HEMOGLOBIN (120 h, time 5 day): 24.57 pg; MEAN CORPUSCULAR HEMOGLOBIN CONCENTRATION (120 h, time 5 day): 38.43 G/DL; MEAN CORPUSCULAR VOLUME (120 h, time 5 day): 63.8 fL; MONOCYTE (120 h, time 5 day): 1.33%; NEUTROPHIL (120 h, time 5 day): 6.67%; NUCLEATED RED BLOOD CELLS (120 h, time 5 day): 0 /100WBC; PLATELET COUNT (120 h, time 5 day): 1293.33 x10E3/uL; ALANINE AMINOTRANSFERASE (120 h, time 5 day): 47.33 u/L; ALBUMIN (120 h, time 5 day): 4.13 G/DL; ALKALINE PHOSPHATASE (120 h, time 5 day): 386.33 u/L; ASPARTATE AMINOTRANSFERASE (120 h, time 5 day): 80 u/L; BLOOD UREA NITROGEN (120 h, time 5 day): 17.67 mg/dL; CARBON DIOXIDE (120 h, time 5 day): 25.33 mmol/L; CHLORIDE (120 h, time 5 day): 106.67 MEQ/L; CHOLESTEROL (120 h, time 5 day): 71.33 mg/dL; CREATINE PHOSPHOKINASE (120 h, time 5 day): 310 u/L; CREATININE (120 h, time 5 day): 0.21 mg/dL; GLUCOSE (120 h, time 5 day): 162 mg/dL; LACTATE DEHYDROGENASE (120 h, time 5 day): 329 u/L; LIPASE (120 h, time 5 day): 9 u/L; PHOSPHORUS (120 h, time 5 day): 13.37 mg/dL; POTASSIUM (120 h, time 5 day): 6 MEQ/L; SODIUM (120 h, time 5 day): 145.27 MEQ/L; TOTAL BILIRUBIN (120 h, time 5 day): 0.27 mg/dL; TOTAL PROTEIN (120 h, time 5 day): 6.37 G/DL; URIC ACID (120 h, time 5 day): 1.77 mg/dL
